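Assay format: 96-well plates, 48-hour exposure. The concentration for 50% growth inhibition is given as GI50.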 Active and inactive are the calls of the source. Rule as the data show it: active = GI50 up to about 1.1 µM and inactive = higher.
Tests used:
Experiment in all cases: NCI anticancer screen, dose series, 48 h
SK-MEL-28 = tested on: SK-MEL-28
HCT-116 = tested on: HCT-116
SK-MEL-5 = tested on: SK-MEL-5
OVCAR-8 = tested on: OVCAR-8
HL-60 = tested on: HL-60
UACC-62 = tested on: UACC-62
HOP-62 = tested on: HOP-62
BT-549 = tested on: BT-549
CAKI-1 = tested on: CAKI-1
NCI-H522 = tested on: NCI-H522
KM12 = tested on: KM12
CCRF-CEM = tested on: CCRF-CEM
786-0 = tested on: 786-0
HOP-92 = tested on: HOP-92
Malme-3M = tested on: Malme-3M
LOX IMVI = tested on: LOX IMVI
SK-MEL-2 = tested on: SK-MEL-2
K562 = tested on: K562
SW-620 = tested on: SW-620
SK-OV-3 = tested on: SK-OV-3

Compound	GI50 (SK-MEL-28)	GI50 (HCT-116)	GI50 (SK-MEL-5)	GI50 (OVCAR-8)	GI50 (HL-60)	GI50 (UACC-62)	GI50 (HOP-62)	GI50 (BT-549)	GI50 (CAKI-1)	GI50 (NCI-H522)	GI50 (KM12)	GI50 (CCRF-CEM)	GI50 (786-0)	GI50 (HOP-92)	GI50 (Malme-3M)	GI50 (LOX IMVI)	GI50 (SK-MEL-2)	GI50 (K562)	GI50 (SW-620)	GI50 (SK-OV-3)
COc1cccc(C2c3cc4c(cc3OC(N3CCCC3)C2C)OCO4)c1O (configuration not stated)	6.5 µM (inactive)	4.61 µM (inactive)	3.38 µM (inactive)	7.55 µM (inactive)	11.3 µM (inactive)	4.33 µM (inactive)	7.52 µM (inactive)	3.79 µM (inactive)	6.32 µM (inactive)	4.44 µM (inactive)	3.03 µM (inactive)	4.69 µM (inactive)	4.89 µM (inactive)	7.82 µM (inactive)	6.17 µM (inactive)	5.56 µM (inactive)	4.14 µM (inactive)	3.74 µM (inactive)	3.74 µM (inactive)	4.36 µM (inactive)
COc1cc(OC)cc(Oc2nc3cc(F)c(F)cc3nc2-c2ccccc2)c1	> 100 µM (inactive)	> 100 µM (inactive)	> 100 µM (inactive)	> 100 µM (inactive)	> 100 µM (inactive)	> 100 µM (inactive)	> 100 µM (inactive)	> 100 µM (inactive)	> 100 µM (inactive)	> 100 µM (inactive)	> 100 µM (inactive)	> 100 µM (inactive)	> 100 µM (inactive)	> 100 µM (inactive)	> 100 µM (inactive)	> 100 µM (inactive)	> 100 µM (inactive)	–	> 100 µM (inactive)	> 100 µM (inactive)
CC(=O)OCC1OC(SC2=NC(=O)/C(=C/c3ccccc3)S2)C(OC(C)=O)C(OC(C)=O)C1OC(C)=O (configuration not stated)	30.8 µM (inactive)	29.4 µM (inactive)	18.8 µM (inactive)	14.6 µM (inactive)	14.5 µM (inactive)	21.1 µM (inactive)	38.5 µM (inactive)	28.4 µM (inactive)	3.78 µM (inactive)	32.9 µM (inactive)	36.9 µM (inactive)	28.4 µM (inactive)	16.9 µM (inactive)	15.7 µM (inactive)	23.7 µM (inactive)	22.4 µM (inactive)	80.4 µM (inactive)	–	23.8 µM (inactive)	45.7 µM (inactive)
C=CC(=O)c1ccc2c(c1)OCCOCCOCCOCCOCCO2	18.7 µM (inactive)	25.9 µM (inactive)	58.7 µM (inactive)	20 µM (inactive)	> 58.6 µM (inactive)	30.3 µM (inactive)	> 100 µM (inactive)	19.9 µM (inactive)	34.4 µM (inactive)	9.48 µM (inactive)	> 100 µM (inactive)	> 27.5 µM (inactive)	16.1 µM (inactive)	17 µM (inactive)	18.5 µM (inactive)	17.7 µM (inactive)	30.5 µM (inactive)	35.6 µM (inactive)	18.8 µM (inactive)	> 100 µM (inactive)
COC(=O)c1cnn2c1n[n+]([O-])c1ccccc12	> 100 µM (inactive)	> 100 µM (inactive)	26.9 µM (inactive)	> 100 µM (inactive)	68.5 µM (inactive)	> 100 µM (inactive)	> 100 µM (inactive)	> 100 µM (inactive)	> 100 µM (inactive)	> 100 µM (inactive)	> 100 µM (inactive)	> 100 µM (inactive)	> 100 µM (inactive)	> 100 µM (inactive)	> 100 µM (inactive)	> 100 µM (inactive)	> 100 µM (inactive)	> 100 µM (inactive)	> 100 µM (inactive)	> 100 µM (inactive)
O=Cc1ccc(-c2nccc3c2[nH]c2ccccc23)o1	> 100 µM (inactive)	55.7 µM (inactive)	82.2 µM (inactive)	> 87.1 µM (inactive)	74.8 µM (inactive)	26.9 µM (inactive)	42.8 µM (inactive)	> 100 µM (inactive)	4.91 µM (inactive)	64.4 µM (inactive)	> 100 µM (inactive)	> 100 µM (inactive)	> 89.9 µM (inactive)	44.6 µM (inactive)	> 100 µM (inactive)	> 56.2 µM (inactive)	> 95.5 µM (inactive)	> 100 µM (inactive)	> 100 µM (inactive)	97.7 µM (inactive)
COC(=O)[C@H]1ON2O[C@H](OC3CCCC[C@@H]3c3ccccc3)C[C@@H]3CC[C@H]1[C@@]32C (some centres not stated)	> 100 µM (inactive)	79.1 µM (inactive)	56.4 µM (inactive)	> 100 µM (inactive)	9.66 µM (inactive)	> 100 µM (inactive)	> 100 µM (inactive)	> 100 µM (inactive)	> 100 µM (inactive)	45.9 µM (inactive)	95.9 µM (inactive)	> 100 µM (inactive)	> 100 µM (inactive)	81.7 µM (inactive)	> 100 µM (inactive)	> 100 µM (inactive)	84.5 µM (inactive)	> 100 µM (inactive)	> 100 µM (inactive)	> 100 µM (inactive)
N#Cc1nc(-c2ccccn2)oc1N	> 100 µM (inactive)	> 100 µM (inactive)	> 100 µM (inactive)	–	> 100 µM (inactive)	> 100 µM (inactive)	> 100 µM (inactive)	> 100 µM (inactive)	> 100 µM (inactive)	> 100 µM (inactive)	> 100 µM (inactive)	> 100 µM (inactive)	> 100 µM (inactive)	> 100 µM (inactive)	> 100 µM (inactive)	> 100 µM (inactive)	> 100 µM (inactive)	> 100 µM (inactive)	> 100 µM (inactive)	> 100 µM (inactive)
CC(=O)NC1C(OCc2ccccc2)OC(CO)C(O)C1OC(C)C(=O)NC(C)C(=O)NC(CCC(=O)NCCCCNc1c2ccccc2nc2cccc([N+](=O)[O-])c12)C(N)=O (configuration not stated)	0.163 µM (active)	0.00748 µM (active)	0.0356 µM (active)	0.0228 µM (active)	0.027 µM (active)	0.0286 µM (active)	0.0791 µM (active)	0.196 µM (active)	0.0325 µM (active)	0.0705 µM (active)	0.0482 µM (active)	0.114 µM (active)	0.0198 µM (active)	0.0176 µM (active)	0.0348 µM (active)	0.216 µM (active)	0.0944 µM (active)	0.0106 µM (active)	0.00741 µM (active)	0.22 µM (active)
C=CC(C)(C)n1cc(C2=C(O)C(=O)C(c3cn(C(C)(C)C=C)c4ccccc34)=C(OC(C)=O)C2=O)c2ccccc21	1.21 µM (inactive)	0.429 µM (active)	0.64 µM (active)	0.632 µM (active)	0.571 µM (active)	0.571 µM (active)	0.628 µM (active)	0.494 µM (active)	1.08 µM (active)	1.55 µM (inactive)	0.565 µM (active)	0.435 µM (active)	1.47 µM (inactive)	0.598 µM (active)	1.46 µM (inactive)	0.508 µM (active)	1.02 µM (active)	0.424 µM (active)	1.53 µM (inactive)	1.49 µM (inactive)
NNC(=O)CCCCCCCC(=O)O	> 100 µM (inactive)	> 100 µM (inactive)	> 100 µM (inactive)	10.4 µM (inactive)	> 100 µM (inactive)	> 100 µM (inactive)	> 100 µM (inactive)	> 100 µM (inactive)	> 100 µM (inactive)	> 100 µM (inactive)	> 100 µM (inactive)	> 100 µM (inactive)	> 100 µM (inactive)	> 100 µM (inactive)	> 100 µM (inactive)	> 100 µM (inactive)	> 100 µM (inactive)	> 100 µM (inactive)	> 100 µM (inactive)	> 100 µM (inactive)
CO[C@@H]1C=C[C@@]23c4cc5c(cc4C(O)N(CC2O)C3C1)OCO5 (some centres not stated)	5.04 µM (inactive)	2.97 µM (inactive)	2.01 µM (inactive)	3.63 µM (inactive)	1.8 µM (inactive)	3.13 µM (inactive)	4.43 µM (inactive)	2.98 µM (inactive)	3.58 µM (inactive)	3.66 µM (inactive)	2.62 µM (inactive)	1.79 µM (inactive)	3.21 µM (inactive)	3.09 µM (inactive)	6.97 µM (inactive)	3.52 µM (inactive)	2.99 µM (inactive)	3.48 µM (inactive)	4.33 µM (inactive)	3.66 µM (inactive)
Cn1c(=O)c2c(ncn2CCCCOc2ccc3c(c2)[n+]([O-])nc(N)[n+]3[O-])n(C)c1=O	34.7 µM (inactive)	28.1 µM (inactive)	9.38 µM (inactive)	20 µM (inactive)	34.9 µM (inactive)	17.1 µM (inactive)	22.7 µM (inactive)	12.9 µM (inactive)	59.8 µM (inactive)	16.4 µM (inactive)	32.6 µM (inactive)	32.7 µM (inactive)	29 µM (inactive)	4.76 µM (inactive)	21.1 µM (inactive)	30.7 µM (inactive)	28.9 µM (inactive)	20.9 µM (inactive)	39.6 µM (inactive)	30.3 µM (inactive)
COc1ccc(Nc2nc(N)c(C(=O)c3ccccc3)s2)cc1	44.4 µM (inactive)	0.0267 µM (active)	0.0689 µM (active)	0.139 µM (active)	< 0.01 µM (active)	0.05 µM (active)	16.7 µM (inactive)	1.33 µM (inactive)	0.0342 µM (active)	0.0148 µM (active)	0.143 µM (active)	0.0226 µM (active)	0.0494 µM (active)	33.6 µM (inactive)	45.2 µM (inactive)	0.0524 µM (active)	0.054 µM (active)	0.0102 µM (active)	0.0197 µM (active)	0.0865 µM (active)

Source: ChEMBL document CHEMBL1201862, “PubChem BioAssay data set” (2004)
